Data from patent US8252833B2, “Benzo (f) isoindol-2-ylphenyl acetic acid derivatives as EP4 receptor agonists” (Glaxo Group Limited, priority 2006, dated 2012).
pEC50: −log10 of the molar value.

Experiments:
[1] = tested on: FCA induced hypersensitivity; assay: FCA induced hypersensitivity in the rat, weight-bearing readout; format: in vivo; conditions: for Effect of low dose when administered alone: low (ED20) doses alone, p.o. (FIG. 1); for ED20 dose: p.o., reversal of FCA induced hypersensitivity
Description: • At the start of the study, naïve weight bearing readings were taken. The hypersensitivity to pain was measured using the Rat incapacitance tester (Linton instruments). • All male rats (RH strain, 180-220 g) then received an intraplantar injection of 100 ul of FCA (Freund's complete adjuvant) into the left hind paw. The ECA was sonicated for 15 minutes prior to use. • 24 hours after administration of the FCA, pre-dose weight bearing readings were taken. All animals were then ranked and randomised for dosing according to their FCA window (predose difference in grams—naïve difference in grams). Rats with FCA window less than 30 were excluded from the study. • Animals were then dosed orally according to ranking and randomisation. Two studies were carried out as follows: • In the first study the ED20 doses of Example 9 and paracetamol were combined using the following protocol, • (1) Vehicle (1% methylcellulose) p.o. • (2) Paracetamol (60 mg/kg) p.o.* • (3) Example 9 (0.1 mg/kg) p.o.* • (4) Example 9 (0.1 mg/kg)+Paracetamol (60 mg/kg) p.o.** • (5) Celecoxib (10 mg/kg) p.o. • *ED20 dose • **Example 9 was dosed initially followed by paracetamol 30 minutes later. • In the second study a fixed dose ratio combination with Example 9 and paracetamol was completed using the following protocol, • (1) Vehicle (1% methylcellulose) p.o.+Vehicle (1% methylcellulose) p.o. • (2) Example 9, 0.003 mg/kg p.o.+Paracetamol, 1.8 mg/kg p.o. • (3) Example 9, 0.01 mg/kg p.o.+Paracetamol, 6 mg/kg p.o. • (4) Example 9, 0.03 mg/kg p.o.+Paracetamol, 18 mg/kg p.o. • (5) Example 9, 0.1 mg/kg p.o.+Paracetamol, 60 mg/kg p.o. • (6) Vehicle (1% methylcellulose) p.o.+Celecoxib, 10 mg/kg p.o. • Animals were assessed in the weight bearing apparatus 1 hour after the dose of paracetamol. • The study was blind and randomised by FCA window using a Latin square method. Preparation Details • All compounds were ground using a pestle and mortar prior to adding the vehicle (1% methylcellulose). Dose volume 5 ml/kg. • All doses were sonicated and stirred before administration. • In this study a positive control was also tested (Celecoxib). […] Statistical Analysis • % reversals were calculated by using the naïve, pre-dose and post dose values as follows: % Reversal=[(Pre-dose−Post-dose)/(Pre-dose−Naïve)]×100. • Graphs and ED50 values were calculated using Prism3. • Statistical analysis was carried out using ANOVA and Fischer LSD test from statistical package Statistica 6. • Synergy was statistically calculated using the synergy macro. The logED50 values and the Standard errors for the individual molecules and the combination study are obtained from Statistica 6 and put into the macro. The fixed dose ratio is specified and the macro then calculates whether the combination was statistically synergistic. It compares the combination data to the theoretical addition of the individual compounds. Results: Percentage Reversal of the Established FCA-Induced Hypersensitivity: […]

[2] = target: T1, recombinant human prostanoid EP4 receptor (Homo sapiens, UniProt P35408); assay: In vitro cAMP assay in HEK-EP4 cells; format: cell-based
T1 construct: expressed in transfected cells; host or cells: HEK-293(T) cells (HEK-EP4, G418 selected)
Description: Cells were grown as a monolayer culture in DMEM-F12/F12 containing glutamax II (Gibco) and supplemented with 10% foetal bovine serum (Gibco) and 0.4 mg.ml-1 G418. HEK-EP4 cells were pre-treated 24 hr and 30 mins prior to the experiment with 10 μM indomethacin and harvested using Versene containing 10 μM indomethacin. The cells were resuspended in assay buffer (DMEM:F12, 10 μM indomethacin and 200 μM IBMX) at 1×10^6 cells per ml and incubated for 20 min at 37° C. Thereafter, 50 μl of cells were added to 50 μl agonist (compound of Formula (I)) and incubated at 37° C. for 4 minutes before stopping reactions with 1000 of 1% triton X-100. cAMP levels in the cell lysates were determined using a competition binding assay. In this assay the ability of cell lysates to inhibit 3H-cAMP (Amersham) binding to the binding subunit of protein kinase A was measured and cAMP levels were calculated from a standard curve. The data for each compound were expressed as a % of the response to a 10 nM maximal concentration of the standard agonist PGE2. For each compound the maximal response and concentration of compound causing 50% of its maximal response were calculated. Intrinsic activity is expressed relative to the maximal response to PGE2. Unless stated, reagents were purchased commercially from Sigma.

[3] = Oral pharmacokinetics in the rat; conditions: in vivo, read-out: oral pharmacokinetic half life (converted)

T1 sequence (P35408 whole entry): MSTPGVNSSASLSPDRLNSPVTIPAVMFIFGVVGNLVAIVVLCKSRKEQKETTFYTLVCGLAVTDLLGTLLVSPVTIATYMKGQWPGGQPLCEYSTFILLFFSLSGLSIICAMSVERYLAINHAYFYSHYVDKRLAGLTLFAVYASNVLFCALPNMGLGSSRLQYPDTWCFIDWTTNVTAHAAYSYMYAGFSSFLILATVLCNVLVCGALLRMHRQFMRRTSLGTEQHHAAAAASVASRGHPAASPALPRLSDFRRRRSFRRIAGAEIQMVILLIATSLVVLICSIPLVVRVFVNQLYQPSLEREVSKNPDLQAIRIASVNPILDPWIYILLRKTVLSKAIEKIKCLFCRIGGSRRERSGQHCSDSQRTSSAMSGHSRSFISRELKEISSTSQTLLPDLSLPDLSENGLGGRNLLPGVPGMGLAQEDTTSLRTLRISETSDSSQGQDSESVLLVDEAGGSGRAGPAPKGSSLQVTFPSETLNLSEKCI

SMILES | Effect of low dose when administered alone [1] | ED20 dose ([1]; rat) [mg/kg] | pEC50 [2] | Emax ([2]; maximal response relative to the maximal response to PGE2 (10 nM), read-out: average intrinsic activity) [%] | EC50 at 3 mg/kg ([1]; Rattus norvegicus) [nM] | reversal of eFCA-induced hypersensitivity ([1]; dosed alone at 3 mg/kg, rat) [%] | half-life [3] [h]
CC(=O)Nc1ccc(O)cc1 [Paracetamol, paracetamol, reference compound] | ineffective | 60 |  |  |  |  | 
CCOc1c2c(c(OCC)c3ccccc13)C(=O)N(c1ccc(CC(=O)O)c(F)c1)C2 [Example 9, {4-[4,9-Bis(ethyloxy)-1-oxo-1,3-dihydro-2H-benzo[f]isoindol-2-yl]-2-fluorophenyl}acetic acid] | ineffective | 0.1 | 7.40 | 68 | 600 | 80 | 7.6
